Laboratory results: US8722628B2, “Autophagy-inducing peptide” (priority 2012, dated 2014)

Test system: H1975 cells
Settings: EGFR T790M

For `C#Cc1cccc(Nc2ncnc3cc(OCCOC)c(OCCOC)cc23)c1` [Erlotinib], the autophagy induction was “fails to induce autophagy” and the cell killing was “fails to kill the cells”.
